# Experimental data: US20090226412A1, “AGENT FOR REDUCTION OF BLEEDING IN CEREBROVASCULAR DISORDER” (ONO PHARMACEUTICAL CO., LTD.,, priority 2005, published 2009)
# Where two headings read alike, the source gives them in different places.
# Key:
# [1] = rat, in vivo, iv, 30 mg/kg
# Experimental: (§1) A rat (male Sprague Dawley (SD) rat, 7 weeks old; Shimizu Laboratory Supplies Co., Ltd. (SLC))) was anesthetized with urethane (1.2 g/6 mL/kg, i.p.), and then the animal was placed on an incubation mat (Microtemp, Seabrook Medical Systems) set to 37° C. after indwelling a catheter (EMS cutdown tube, JMS Co., Ltd.) made of vinyl chloride in a left femoral vein for administration of a test substance. […] Five minutes after the administration, a tip of the tail was cut at the position of 2 mm with a razor (single-edged feather), and immediately, the tail was immersed in saline (Otsuka normal saline) warmed to 37° C. Finally, the time until the hemorrhage was stopped (30 minutes at a maximum) was measured, which was regarded as bleeding time.
# [2] = tested on: cerebral hemorrhage model with the use of SHR; assay: Cerebral hemorrhage in MCA occlusion-recanalization model, intracerebral hemoglobin by ELISA; type: in vivo, rat; settings: 24 hours after MCA occlusion, sham 4.5±0.74, saline 19.6±2.21
# Experimental: For the animal, a male spontaneously hypertensive rat (hereinafter abbreviated to SHR) (14 to 15 week old); Japan Charles River) was used. The preparation of middle cerebral artery (hereinafter abbreviated to MCA) occlusion-recanalization model of rat was performed according to the method of Koizumi, et al., (in Stroke 8: 1-7, 1986). In particular, the rat was subjected to anesthetic induction by 4% halothane (halothane vaporizer, Shinano Co., Ltd.) in 30% oxygen/70% air. The anesthesia was maintained by means of 2.5% halothane. The animal was placed in a dorsal position. The dissection of anterior neck midline was performed, the left side of the common carotid artery and the external carotid artery were exfoliated from the surrounding connective tissue around the left carotid artery bifurcation, and then a thread was hooked around the artery to ligate, respectively. Afterwards, the left internal carotid artery was exfoliated from the surrounding connective tissue, and then a thread was hooked around the artery. The range of about 5 mm from the tip of a 4-0 nylon thread for surgery (NC sterilization operation thread, Nichiyo industry Co., Ltd.) (25 mm long) was silicon-coated with an impression material for dentistry (mixture solution of XANTOPREN VL plus and OPTOSIL-XANTOPREN ACTIVATOR, Heraeus Dental Material Co., Ltd.). Then the thread was inserted to the left carotid artery from the left carotid artery bifurcation. Then, the origin part of the left MCA was occluded by means of fixing with a Sugita type clip (Mizuho Medical Industry Co., Ltd.). Nine hours after the occlusion, rat was subjected to anesthetic induction with 4% halothane in 30% oxygen/70% air. The anesthesia was maintained by means of 2.5% halothane. […] An amount of cerebral hemorrhage was measured 24 hours after the MCA occlusion.
# In addition, intracerebral hemoglobin content can be also measured by using the following methods, in particular, an enzyme-linked immunosorbent assay (ELISA). […]
# [3] = tested on: normal human umbilical cord vein endothelial cell; assay: Effect on vascular endothelial cell death induced by hydrogen peroxide (WST-1 method); type: cell-based; settings: 0.5 mM hydrogen peroxide, 6 hours, compound added 15 minutes before
# Experimental: A normal human umbilical cord vein endothelial cell (Cat. No. CRL-1730; Dainippon Pharmaceutical Co., Ltd.) was cultured in serum-containing liquid culture medium for vascular endothelial cell (Nissui Pharmaceutical Co., Ltd.) under conditions of 37° C., 5% CO2. The exchange of the culture fluid was performed every other day. The cells proliferated to confluent state were sub-cultured. 5×10^4 cells/mL of cell suspension was disseminated in an amount of 500 μL/well to a gelatin-coated 24 well plate (Iwaki). A few days later, the culture medium was removed after confirming that the cells were proliferated to confluent state, and changed to 480 μL/well of Dulbecco's Modified Eagle's Medium (DMEM; GIBCO-BRL)). The compound A was adjusted to become 50 times larger than the addition final concentration in DMEM after the dissolution of the compound A to dimethyl sulfoxide (DMSO). The sterilization was performed by using 0.22 μm filter for filtration sterilization (Millex, MILLIPORE). […]
# The evaluation was performed by means of WST-1 method (modulated MTT method) with the use of Cell Counting Kit (DOJINDO). […] After that, 200 μL/well of the culture supernatant was collected, and then the absorbance (450 nm) was measured. The cell death inhibitory rate of the test substance treated group was calculated, regarding that the cell survival rate of the control group (untreated group) as a standard (100%).
# [4] = tested on: cerebral hemorrhage model with the use of SHR; assay: Cerebral hemorrhage in MCA occlusion-recanalization model, intracerebral hemoglobin by Drabkin's reagent; type: in vivo, rat; settings: 3 mg/kg/h continuous i.v. for 9 hours right after occlusion; measured 24 hours after MCA occlusion; sham 13.0±1.1, saline 25.5±2.2
# Experimental: For the animal, a male spontaneously hypertensive rat (hereinafter abbreviated to SHR) (14 to 15 week old); Japan Charles River) was used. The preparation of middle cerebral artery (hereinafter abbreviated to MCA) occlusion-recanalization model of rat was performed according to the method of Koizumi, et al., (in Stroke 8: 1-7, 1986). In particular, the rat was subjected to anesthetic induction by 4% halothane (halothane vaporizer, Shinano Co., Ltd.) in 30% oxygen/70% air. The anesthesia was maintained by means of 2.5% halothane. The animal was placed in a dorsal position. The dissection of anterior neck midline was performed, the left side of the common carotid artery and the external carotid artery were exfoliated from the surrounding connective tissue around the left carotid artery bifurcation, and then a thread was hooked around the artery to ligate, respectively. Afterwards, the left internal carotid artery was exfoliated from the surrounding connective tissue, and then a thread was hooked around the artery. […] An amount of cerebral hemorrhage was measured 24 hours after the MCA occlusion.
# An amount of cerebral hemorrhage was measured on the basis of the content of intracerebral hemoglobin (Hb) as an indicator according to a method of Asahi et al. (J Cereb Blood Flow Metab 20: 452-457, 2000)). […] Afterwards, absorbance was measured at 540 nm of photometry wavelength. […]
# [5] = Influence of PARP inhibitor on bleeding time (rat tail cut); settings: male SD rat, intravenous bolus, tail tip cut 5 minutes after administration, 30 minutes at a maximum; compound A 30 mg/kg, heparin 100 U/kg; saline control about 15 minutes
# Experimental: as §1
Compound,bleeding time [1],content of intracerebral hemoglobin ([2]; 1 mg/kg/h) [µg/mL],content of intracerebral hemoglobin ([2]; 3 mg/kg/h) [µg/mL],content of intracerebral hemoglobin ([2]; 10 mg/kg/h) [µg/mL],inhibitory effect of the vascular endothelial cell disorder (cell death inhibitory rate) [3],content of intracerebral hemoglobin [4] [µL],bleeding time [5] [min]
"O=C(Cc1n[nH]c(=O)c2c1CCCC2)NCCCCN1CCOCC1 [compound A, 4-(N-(4-(morpholin-4-yl)butyl)carbamoylmethyl)-5,6,7,8-tetrahydrophthalazin-1(2H)-one]",about 15 minutes,15.4 ± 2.19,15.5 ± 2.14,10.3 ± 1.24,showed an inhibitory effect of the vascular endothelial cell disorder dose-dependently,17.7 ± 1.3,
heparin,,,,,,,≥ 30
